Assay results published in patent US8058227B2, “Method of treating fibrosis in a subject in need thereof comprising administering a composition comprising a CSD” (Medical University of South Carolina, priority 2006, dated 2011).

Assays:
[1] = tested on: scleroderma lung fibroblasts (SLF); test: CSD peptide treatment of SLF, Western blotting; format: cell-based, human
From the text: Fibroblasts were derived from lung tissue obtained at autopsy from scleroderma patients (SLF) and from age-, race-, and sex-matched normal subjects (NLF) and cultured as previously described (44). Cells were used in passages 2-4. The group of scleroderma patients fulfilled the criteria of American college of Rheumatology for the diagnosis of scleroderma with lung involvement. Normal human lung tissue was obtained from the Brain and Tissue Bank for Developmental Disorders (Baltimore, Md.) or from the National Disease Research Interchange (Philadelphia, Pa.). Scleroderma lung tissue was obtained from the Division of Pathology and Laboratory Medicine at the Medical University of South Carolina (MUSC). The study was approved by the Institutional Review Board for Human Subject Research at the MUSC.
The CSD peptide (amino acids 82-101 of caveolin-1; […]) (SEQ ID NO: 1) and a scrambled control peptide ([…]) (SEQ ID NO: 2) were synthesized as fusion peptides to the C terminus of the Antennapedia internalization sequence (RQIKUVFQNRRMKWKK) (SEQ ID NO: 3). Before each experiment, desiccated peptides were dissolved at a final 1 mM in 10% DMSO as described by Bernatchez et al. (4). Cells in 6-well plates at 70-80% confluence were then incubated with 1 ml serum-free DMEM containing […] CSD or scrambled peptide. After 6 h, the culture medium and cell layer were harvested.
Cell layers were harvested in boiling SDS-PAGE sample buffer; medium was dialyzed, lyophilized, and resuspended in sample buffer. Aliquots of culture medium or of cell layer representing material derived from the same number of cells was probed using the following primary antibodies and appropriate secondary antibodies. Culture medium: goat anti-human collagen I (AB758P) and rabbit anti-human tenascin-C (AB19011) from Chemicon International (Temecula, Calif.). Cell layer: rabbit antibodies against PKCα (sc-208), PKCε (sc-214), activated JNK (sc-12882), activated Akt Thr 308 (sc-166646R) and caveolin-1 (sc-894) from Santa Cruz Biotechnology (Santa Cruz, Calif.); rabbit antibodies against ERK 1/2 (9102), activated ERK 1/2 (9106), JNK (9252), Akt (9272), MEK 1/2 (9122), and activated MEK 1/2 (9121) from Cell Signaling (Beverly, Mass.); mouse monoclonal anti-ASMA (clone 1A4) from Sigma (Saint Louis, Mo.), and mouse monoclonal anti-actin (MAB1501) from Chemicon International (Temecula, Calif.).
Immunoreactive bands were quantified by densitometry using the Image 1.32J NIH software. For statistical analysis the raw densitometric data were processed and analyzed using the Prism 3.0 (GraphPad Software Inc.) statistical analysis software.

[2] = tested on: normal lung fibroblasts (NLF); test: Immunocytochemistry and laser confocal microscopy of CSD peptide-treated NLF; format: cell-based, human
Description: (§1) NLF or SLF cultured in 4-well glass chamber slides (Nalge Nunc International, Naperville, Ill.) as previously described (43) were incubated with CSD peptide or scrambled (Scr) peptide, fixed, permeabilized, and stained red with 7-aminoactinomycin D to detect nuclei and green using appropriate primary and secondary antibodies to detect caveolin-1 or ph-ERK. Images were captured by confocal microscopy.
as §1, with “ph-JNK” for “caveolin-1”, “ph-Akt.” for “ph-ERK.”
NLF and SLF were cultured in 4-well glass chamber slides (Nalge Nunc International, Naperville, Ill.) and stained as previously described (43) using the indicated primary antibodies and appropriate secondary antibodies tagged with Alexa Fluoro® 488 (Molecular Probes, Eugene, Oreg.). Nuclei were stained with 7-aminoactinomycin D (Molecular Probes, Eugene, Oreg.). Images were acquired using a Zeiss 510SML Laser Confocal Microscope (excitation S490/20, emission D528/38) fitted with an oil-immersion objective (40×/1.4).

[3] = tested on: normal lung fibroblasts (NLF); test: Collagen and ASMA expression in NLF treated with CSD and its subdomains; format: cell-based, human; settings: 3 μM peptide
Description: (§2) The indicated cell types (NLF and SLF) were cultured as described with 0, 1, 3, or 5 μM of the indicated peptides. Collagen in the medium and ASMA and actin (loading control) in the cell layer were detected by Western blotting. Blots were quantified densitometrically. The level of collagen and ASMA in cells treated with no peptide (divided by the level of actin) was set to 100 arbitrary units. Because SLF express higher levels of collagen and ASMA than do NLF, 100 arbitrary of collagen in SLF is equivalent to 195 arbitrary units of collagen in NLF and 100 arbitrary units of ASMA in SLF is equivalent to 255 arbitrary units of ASMA in NLF. The data presented are the average of the densitometric quantification of three independent experiments.
(§3) To compare the activity of CSD to its subdomains, five subdomains [A (82-88 amino acids), B (89-95), C (96-101), AB (82-95) and BC (89-101)] were synthesized in fusion with the Antennapedia internalization sequence and added to culture medium at 1, 3, and 5 μM. […] Very different results were obtained when examining ASMA expression.

[4] = tested on: scleroderma lung fibroblasts (SLF); test: Collagen and ASMA expression in SLF treated with CSD and its subdomains; format: cell-based, human
Description: as §2, §3

[5] = tested on: eNOS; settings: endothelial cells; Bernatchez et al. (4); cited from earlier work
[6] = CSD peptide vs scrambled peptide

Question: For DGIWKASFTTFTVTKYWFYR [CSD peptide], which “time in which inhibition of collagen expression occurs” value ([1]; 5 μM CSD) is on record?
Answer: The value was “less than 5 hours”.

Question: What about the “decrease of MEK/ERK activation” value ([1]; 5 μM CSD peptide vs scrambled peptide) of the same sequence?
Answer: The value was “about 50%”.

Question: What about the “inhibition of collagen expression” value ([1]; 5 μM CSD peptide vs scrambled peptide, collagen in culture medium, Western blotting) of the same sequence?
Answer: Its value is over 95%.

Question: What about the “activation of Akt” value ([1]; CSD peptide vs Scr peptide) of the same sequence?
Answer: The value was “inhibited”.

Question: What about the “activation of JNK” value ([1]; CSD peptide vs Scr peptide) of the same sequence?
Answer: The value was “inhibited”.

Question: What about the “expression of total MEK, total ERK, total Akt, or total JNK” value ([1]; CSD peptide vs Scr peptide) of the same sequence?
Answer: Its value is “did not affect”.

Question: What about the ASMA expression [1, 6] of the same sequence?
Answer: Its ASMA expression is “inhibited”.

Question: And the “expression of caveolin-1 itself, PKCα, or PKCε” value [1, 6]?
Answer: Its value is “did not affect”.

Question: And the tenascin-C expression [1, 6]?
Answer: The tenascin-C expression was “inhibited”.

Question: And the “distribution of caveolin-1 staining” value ([2]; CSD peptide vs Scr peptide)?
Answer: The value was “staining associated with the plasma membrane becoming more prominent”.

Question: What about the “level of caveolin-1 expression detected by IHC” value ([2]; CSD peptide vs Scr peptide) of the same sequence?
Answer: The value was “did not affect”.

Question: And the “distribution of activated Akt staining” value ([2]; CSD peptide vs control peptide)?
Answer: The value was “preferentially decreased perinuclear, nuclear, and cytoplasmic staining while increasing staining associated with the plasma membrane”.

Question: And the “distribution of activated JNK staining” value ([2]; CSD peptide vs control peptide)?
Answer: The value was “preferentially decreased perinuclear staining and increased staining associated with the plasma membrane”.

Question: And the “level of activated Akt (IHC)” value ([2]; CSD peptide vs control peptide)?
Answer: The value was “decreases”.

Question: What about the “level of activated ERK (IHC)” value ([2]; CSD peptide vs control peptide) of the same sequence?
Answer: Its value is “decreases”.

Question: And the “level of activated JNK (IHC)” value ([2]; CSD peptide vs control peptide)?
Answer: The value was “decreases”.

Question: And the “localization of residual activated ERK staining” value ([2]; after CSD peptide)?
Answer: Its value is “primarily perinuclear and cytoplasmic”.

Question: What about the collagen expression [3] of the same sequence?
Answer: The collagen expression was “completely inhibited”.

Question: And the collagen expression ([4]; 3 μM peptide)?
Answer: The collagen expression was “completely inhibited”.

Question: And the “inhibition of ASMA expression” value ([4]; 5 μM peptide)?
Answer: The value was “about 80%”.

Question: And the ASMA expression ([4]; peptides at 1, 3, and 5 μM)?
Answer: The ASMA expression was “inhibited”.

Question: And the eNOS activity [5]?
Answer: Its eNOS activity is “most strongly inhibited”.
